Source: patent publication US4008285A, “Process for making xylitol” (priority 1975, dated 1977)

Test: Solubility of galactitol (no method)
Type: physicochemical
Conditions: galactitol tends to crystallize with xylitol crystals; no solvent or temperature printed

## OC[C@@H](O)[C@H](O)[C@H](O)[C@@H](O)CO [galactitol]
  solubility: very low solubility
